# Results from patent US8871465B2 (priority 2009, dated 2014).
# Legend:
# [1] = as indicated in U.S. Pat. No. 6,558,917; cited from earlier work
# [2] = Stability of the substrate in aqueous medium; type: physicochemical; settings: medium at pH 7.2; a pH of 6.8 is required
# [3] = test system: 0240015 (Bacillus cereus group); settings: pH 7.2
# [4] = test system: Bacillus cereus ATCC 7064
# [5] = test system: ATCC 6464 (Bacillus cereus group); settings: pH 7.2
# [6] = test system: Bacillus circulans ATCC 4513; settings: pH 7.2
# [7] = test system: other Gram-positive bacteria; settings: pH 7.2
# L. monocytogenes 0301902 = settings: 37° C., pH 7.2, 1 000 CFU, detection threshold 30 000 RFU
# Method: (§1) Various pure strains of the Bacillus genus and also other Gram-positive bacteria were tested in a microplate in the presence of the medium below. A reading of the appearance of the fluorescence in each of the various wells of the microplate was then performed at different times over the course of 44 h of incubation at 37° C.
# (§2) The medium having the following composition was used (composition in g/l), pH 7.2:
# (§3) The wells of the microplate are inoculated with 10 colony-forming units (CFU) of bacteria of the Bacillus cereus group and 1 000 CFU for the other Bacillus that are non cereus and other Gram-positive bacteria. The microplate is then incubated for 44 h at 37° C. in a microplate reader in order to evaluate the PC-PLC activity of these various strains in the form of kinetics of hydrolysis of the substrate 4 MU-CP, i.e to detect and measure the appearance of fluorescence. The detection threshold of the measuring apparatus is fixed at 30 000 RFU (relative fluorescence unit).
# S. aureus 8407603 = settings: 37° C., pH 7.2, 1 000 CFU, detection threshold 30 000 RFU
# Method: as §1, §2, §3
# L. ivanovii 0002147 = settings: 37° C., pH 7.2, 1 000 CFU, detection threshold 30 000 RFU
# Method: as §1, §2, §3
# [8] = test system: L. monocytogenes ATCC 19118; settings: 37° C., pH 7.2, 1 000 CFU, detection threshold 30 000 RFU
# Method: as §1, §2, §3
# L. ivanovii ATCC 49954 = settings: 37° C., pH 7.2, 1 000 CFU, detection threshold 30 000 RFU
# Method: as §1, §2, §3
# S. aureus 25923 = settings: 37° C., pH 7.2, 1 000 CFU, detection threshold 30 000 RFU
# Method: as §1, §2, §3
# [9] = test system: Bacillus subtilis ATCC 6051; settings: 37° C., pH 7.2, 1 000 CFU, detection threshold 30 000 RFU
# Method: as §1, §2, §3
# [10] = test system: Bacillus lentus ATCC 10840; settings: pH 7.2
# [11] = test system: ATCC 10876 (Bacillus cereus group); settings: pH 7.2
# [12] = test system: NCTC 11145 (Bacillus cereus group); settings: pH 7.2
# [13] = test system: Bacillus megaterium ATCC 14581; settings: pH 7.2
# [14] = test system: Bacillus pumilus ATCC 7061; settings: pH 7.2
# [15] = test system: ATCC 33019 (Bacillus cereus group); settings: pH 7.2
# [16] = test system: PaeniBacillus polymyxa ATCC 21551; settings: pH 7.2
# [17] = test system: Bacillus cereus ATCC 7064; settings: pH 7.2
# [18] = test system: ATCC 9139 (Bacillus cereus group); settings: pH 7.2
# Bacillus cereus = settings: pH 7.2
# [19] = test system: Bacillus licheniformis 93.08.043; settings: pH 7.2
# [20] = test system: Bacillus sphaericus 8710054; settings: pH 7.2
# [21] = test system: ATCC 6463 (Bacillus cereus group); settings: pH 7.2
smiles,measurement,setting,value
"Cc1cc(=O)oc2cc(OP(=O)(O)OC3C(O)C(O)C(O)C(O)C3O)ccc12 (stereo not shown) [4 MU-MIP, 4-methylumbelliferyl myoinositol-1-phosphate]",Stability in an aqueous medium,[1],reduced stability
same,Stability of the substrate at pH 7.2,[2],instability of the substrate being too great
"Cc1cc(=O)oc2cc(OP(=O)([O-])OCC[N+](C)(C)C)ccc12 [4 MU-PC, 4-methylumbelliferyl choline phosphate]",Levels of fluorescence in 24 h,[3],>60000 RFU
same,Levels of fluorescence in 40 h,[3],>60000 RFU
same,Reduction of the detection time at pH 7.2 compared with pH 6.8,[4],10 h
same,Levels of fluorescence in 24 h,[5],>60000 RFU
same,Levels of fluorescence in 40 h,[5],>60000 RFU
same,Levels of fluorescence in 24 h,[6],10000 RFU
same,Levels of fluorescence in 40 h,[6],20000 RFU
same,Incubation time to positive signal (PC-PLC activity),[7],> 40 h
same,Levels of fluorescence in 24 h,L. monocytogenes 0301902; 24 h,5000 RFU
same,Levels of fluorescence in 40 h,L. monocytogenes 0301902; 40 h,10000 RFU
same,Levels of fluorescence in 24 h,S. aureus 8407603; 24 h,2000 RFU
same,Levels of fluorescence in 40 h,S. aureus 8407603; 40 h,2000 RFU
same,Levels of fluorescence in 24 h,L. ivanovii 0002147; 24 h,2000 RFU
same,Levels of fluorescence in 40 h,L. ivanovii 0002147; 40 h,10000 RFU
same,Levels of fluorescence in 24 h,[8]; 24 h,4000 RFU
same,Levels of fluorescence in 40 h,[8]; 40 h,15000 RFU
same,Levels of fluorescence in 24 h,L. ivanovii ATCC 49954; 24 h,2000 RFU
same,Levels of fluorescence in 40 h,L. ivanovii ATCC 49954; 40 h,10000 RFU
same,Levels of fluorescence in 24 h,S. aureus 25923; 24 h,2000 RFU
same,Levels of fluorescence in 40 h,S. aureus 25923; 40 h,2000 RFU
same,Levels of fluorescence in 24 h,[9]; 24 h,10000 RFU
same,Levels of fluorescence in 40 h,[9]; 40 h,20000 RFU
same,Levels of fluorescence in 24 h,[10],5000 RFU
same,Levels of fluorescence in 40 h,[10],10000 RFU
same,Levels of fluorescence in 24 h,[11],>60000 RFU
same,Levels of fluorescence in 40 h,[11],>60000 RFU
same,Levels of fluorescence in 24 h,[12],>60000 RFU
same,Levels of fluorescence in 40 h,[12],>60000 RFU
same,Levels of fluorescence in 24 h,[13],5000 RFU
same,Levels of fluorescence in 40 h,[13],5000 RFU
same,Levels of fluorescence in 24 h,[14],5000 RFU
same,Levels of fluorescence in 40 h,[14],10000 RFU
same,Levels of fluorescence in 24 h,[15],>60000 RFU
same,Levels of fluorescence in 40 h,[15],>60000 RFU
same,Levels of fluorescence in 24 h,[16],5000 RFU
same,Levels of fluorescence in 40 h,[16],10000 RFU
same,Levels of fluorescence in 24 h,[17],>60000 RFU
same,Levels of fluorescence in 40 h,[17],>60000 RFU
same,Levels of fluorescence in 24 h,[18],>60000 RFU
same,Levels of fluorescence in 40 h,[18],>60000 RFU
same,Incubation time to positive signal (PC-PLC activity),Bacillus cereus,≥ 15 h
same,Levels of fluorescence in 24 h,[19],2000 RFU
same,Levels of fluorescence in 40 h,[19],2000 RFU
same,Levels of fluorescence in 24 h,[20],20000 RFU
same,Levels of fluorescence in 40 h,[20],>60000 RFU
same,Levels of fluorescence in 24 h,[21],>60000 RFU
same,Levels of fluorescence in 40 h,[21],>60000 RFU
